How the values were obtained:
[1] = Viscosity response: fluorescence in glycerin vs methanol (Test Example 1); assay type: physicochemical; settings: final concentration 1×10^−5 M; for Glycerin/Methanol Fluorescence Intensity Ratio: excited at maximum excitation wavelength of each dye; for Maximum Excitation Wavelength (nm): glycerin and methanol
RNA aptamer [2] = test: Labeling intracellular RNA aptamer in cells (Test Example 4, FIG. 20A/20B); assay type: cell-based; settings: for fluorescence of cells expressing the RNA aptamer: FIG. 20A; for fluorescence of cells not expressing the RNA aptamer: FIG. 20B
Description: FIGS. 20A and 20B are the application of molecular rotors IV-1, IV-2, IV-3, IV-4, IV-5, IV-6, IV-17, IV-18, IV-19, IV-20, IV-21, IV-22 in labeling intracellular RNA aptamer, wherein FIG. 20A are cells expressing the target RNA aptamer, and FIG. 20B are cells not expressing the target RNA aptamer;

RNA aptamer [3] = test: Optical properties after binding to RNA aptamer (Test Example 4); assay type: biochemical; settings: for Em/nm / Ex/nm / ε / QY (−): after binding to RNA aptamer; for QY (−): relative method with Rhodamine 6G as the standard; for compound fluorescence after binding to RNA aptamer: excited at a suitable wavelength
[4] = Fluorescence emission at different viscosity conditions, diethanol-glycerol mixed solution (Test Example 2); assay type: physicochemical; settings: 1×10^−5 M, excited at 480 nm

Structure (SMILES)	Glycerin/Methanol Fluorescence Intensity Ratio [1]	Maximum Excitation Wavelength (nm) [1] [nm]	fluorescence of cells expressing the RNA aptamer (RNA aptamer [2])	fluorescence of cells not expressing the RNA aptamer (RNA aptamer [2])	Em/nm (RNA aptamer [3]) [nm]	Ex/nm (RNA aptamer [3]) [nm]	ε (RNA aptamer [3]) [M⁻¹ cm⁻¹]	QY (−) (RNA aptamer [3])	compound fluorescence after binding to RNA aptamer (RNA aptamer [3])	fluorescence intensity at different viscosity conditions [4]
CCN1C(=O)/C(=C/c2cc(F)c(O)c(Cl)c2)N=C1/C=C/c1ccc(C#N)cc1 [IV-10]	779	620								
CN1C(=O)/C(=C/c2cc(F)c(O)c(F)c2)N=C1/C=C/c1ccc(C#N)cc1 [IV-1]	987	618	bright fluorescence	no fluorescence	618	510	20667	0.17	noticeably activated	gradually increasing fluorescence intensity
CN1C(=S)/C(=C/c2cc(F)c(O)c(F)c2)N=C1/C=C/c1ccc(C#N)cc1 [IV-8]	861	638								
CCCN1C(=O)/C(=C/c2cc(F)c(O)c(I)c2)N=C1/C=C/c1ccc(Cl)cc1 [IV-12]	898	573								
C#CCOCCN(C)c1ccc(/C=C2N=C(/C=C/c3ccc(F)cc3)N(C)C\2=O)cc1 [IV-37]	801	580								
CN1C(=S)/C(=C/c2cc(F)c(O)c(F)c2)N=C1/C=C/c1ccc(F)cc1 [IV-7]	873	570								
CN1C(=O)/C(=C/c2cc(F)c(O)c(F)c2)N=C1/C=C/c1ccc(O)cc1 [IV-3]	951	565	bright fluorescence	no fluorescence	565	490	26000	0.27	noticeably activated	gradually increasing fluorescence intensity
CN1C(=O)/C(=C/c2cc(F)c(O)c(F)c2)N=C1/C=C/c1cccc(O)c1 [IV-4]	687	574	bright fluorescence	no fluorescence	574	490	23333	0.37	noticeably activated	gradually increasing fluorescence intensity
CN1C(=O)/C(=C/c2ccc(O)c(F)c2)N=C1/C=C/c1ccc(C#N)cc1 [IV-9]	697	615								
CC1=CC(C)(C)N(C)c2ccc(/C=C3N=C(/C=C/c4ccc(C#N)cc4)N(C)C\3=O)cc21 [IV-33]	729	605								
CN1C(=O)/C(=C/c2cc(F)c(O)c(F)c2)N=C1/C=C/c1ccc(F)cc1 [IV-5]	861	570	bright fluorescence	no fluorescence	570	492	23000	0.33	noticeably activated	gradually increasing fluorescence intensity
CN1C(=O)/C(=C/c2ccc(N(C)CCO)cc2)N=C1/C=C/c1ccc(O)cc1 [IV-20]	781	577	bright fluorescence	no fluorescence	577	512	25500	0.36	noticeably activated	gradually increasing fluorescence intensity
CN1C(=O)/C(=C/c2cc(F)c(O)c(F)c2)N=C1/C=C/c1cccc(C#N)c1 [IV-2]	687	595	bright fluorescence	no fluorescence	595	492	25000	0.36	noticeably activated	gradually increasing fluorescence intensity
CN1C(=O)/C(=C/c2ccc(N(C)CCO)cc2)N=C1/C=C/c1cccc(C#N)c1 [IV-18]	890	595	bright fluorescence	no fluorescence	600	536	25000	0.43	noticeably activated	gradually increasing fluorescence intensity
CN1C(=O)/C(=C/c2cnc3cc(N(C)C)ccc3c2)N=C1/C=C/c1cccc(C#N)c1 [IV-38]	529	705								
CCCN1C(=O)/C(=C/c2cc3c4c(c2)CCCN4CCC3)N=C1/C=C/c1ccc(C#N)cc1 [IV-27]	890	600								

Continued, in another order:

Glycerin/Methanol Fluorescence Intensity Ratio [1]	Maximum Excitation Wavelength (nm) [1] [nm]	Structure (SMILES)	fluorescence of cells expressing the RNA aptamer (RNA aptamer [2])	fluorescence of cells not expressing the RNA aptamer (RNA aptamer [2])	Em/nm (RNA aptamer [3]) [nm]	Ex/nm (RNA aptamer [3]) [nm]	ε (RNA aptamer [3]) [M⁻¹ cm⁻¹]	QY (−) (RNA aptamer [3])	compound fluorescence after binding to RNA aptamer (RNA aptamer [3])	fluorescence intensity at different viscosity conditions [4]
942	620	CN1C(=O)/C(=C/c2ccc(N(C)CCS(=O)(=O)O)cc2)N=C1/C=C/c1ccc(C#N)cc1 [IV-28]								
902	581	CN1C(=O)/C(=C/c2ccc(N(C)CCN)cc2)N=C1/C=C/c1cccc(F)c1 [IV-31]								
915	617	C=CCOCCN(C)c1ccc(/C=C2N=C(/C=C/c3ccccc3C#N)N(C)C\2=S)cc1 [IV-23]								
689	580	CN1C(=O)/C(=C/c2ccc(N(C)CCO)cc2)N=C1/C=C/c1ccc(F)cc1 [IV-22]	bright fluorescence	no fluorescence	580	522	32000	0.46	noticeably activated	gradually increasing fluorescence intensity
937	555	CN1C(=O)/C(=C/c2cnc(N(C)CCC#N)nc2)N=C1/C=C/c1ccccc1I [IV-26]								
699	585	CCN1C(=O)/C(=C/c2ccc(O)c(Cl)c2)N=C1/C=C/c1ccc(I)cc1 [IV-14]								
792	690	CN1C(=O)/C(=C/c2ccc3cc(N(C)CCO)ccc3c2)N=C1/C=C/c1cccc(O)c1 [IV-36]								
918	591	CCCCCCN(CCCCCC)c1cnc(/C=C2N=C(/C=C/c3cccc(Cl)c3)N(C)C\2=O)cn1 [IV-25]								
921	582	COC(=O)CNCCN(C)c1ccc(/C=C2N=C(/C=C/c3ccc(Br)cc3)N(C)C\2=O)cc1 [IV-30]								
934	551	CCCN1C(=S)/C(=C/c2ccc(N(C)C)nc2)N=C1/C=C/c1ccccc1F [IV-24]								
999	580	CN(C)CCN(C)c1ccc(/C=C2N=C(/C=C/c3cccc(F)c3)N(C)C\2=O)cc1 [IV-32]								
829	618	COCCOCCOCCOCC(=O)OCCN(C)c1ccc(/C=C2N=C(/C=C/c3ccc(C#N)cc3)N(C)C\2=O)cc1 [IV-29]								
821	577	CN1C(=O)/C(=C/c2ccc(N(C)CCO)cc2)N=C1/C=C/c1cccc(F)c1 [IV-19]	bright fluorescence	no fluorescence	590	522	30000	0.43	noticeably activated	gradually increasing fluorescence intensity
730	586	CN1C(=O)/C(=C/c2ccc(O)c(Br)c2)N=C1/C=C/c1cccc(Cl)c1 [IV-15]								
689	595	O=C1NC(/C=C/c2ccc(Br)cc2)=NC/1=C\c1cc(Cl)c(O)c(Cl)c1 [IV-16]								
776	561	CN1C(=O)/C(=C/c2ccc(N)cc2)N=C1/C=C/c1ccc(C#N)cc1 [IV-35]								
810	603	CN1C(=O)/C(=C/c2ccc3c(c2)OCCN3C)N=C1/C=C/c1ccc(F)cc1 [IV-34]								
711	590	CN1C(=O)/C(=C/c2cc(Cl)c(O)c(Cl)c2)N=C1/C=C/c1ccc(Br)cc1 [IV-13]								
